Experimental data: PubChem BioAssay (NCI)
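In this assay, cells in 96-well plates receive the compound at five concentrations for 48 hours. Endpoints are linearly interpolated between the surrounding concentrations. GI50 = concentration required for 50% inhibition of growth. At the TGI there is no net growth.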

How the values were obtained:
Experiment in all cases: NCI anticancer screen, dose series, 48 h
[1] = test system: NCI-H23 lung
[2] = test system: KM12 colon
[3] = test system: 786-0 renal
[4] = test system: SNB-19 CNS
[5] = test system: A549 NSCLC
[6] = test system: MCF7 breast
[7] = test system: UO-31 renal
[8] = test system: COLO 205 colon
[9] = test system: NCI-H522 lung
[10] = test system: MALME-3M melanoma
[11] = test system: SNB-75 CNS
[12] = test system: NCI-H226 lung
[13] = test system: SF-539 CNS
[14] = test system: M14 melanoma
[15] = test system: RXF 393 renal
[16] = test system: PC-3 prostate
[17] = test system: HOP-92 NSCLC
[18] = test system: CAKI-1 renal
[19] = test system: T-47D breast
[20] = test system: LOX IMVI melanoma
[21] = test system: BT-549 breast
[22] = test system: DU-145 prostate
[23] = test system: ACHN renal
[24] = test system: HS 578T breast
[25] = test system: U251 CNS
[26] = test system: A498 renal
[27] = test system: SK-MEL-2 melanoma
[28] = test system: SF-295 CNS
[29] = test system: UACC-257 melanoma
[30] = test system: HL-60(TB) leukemia
[31] = test system: RPMI-8226 leukemia
[32] = test system: SK-MEL-5 melanoma
[33] = test system: HT29 colon
[34] = test system: NCI/ADR-RES ovarian
[35] = test system: HCC-2998 colon
[36] = test system: SK-MEL-28 melanoma
[37] = test system: OVCAR-3 ovarian
[38] = test system: HCT-116 colon
[39] = test system: CCRF-CEM leukemia
[40] = test system: MOLT-4 leukemia
[41] = test system: K-562 leukemia
[42] = test system: OVCAR-5 ovarian
[43] = test system: SW-620 colon
[44] = test system: OVCAR-8 ovarian
[45] = test system: TK-10 renal
[46] = test system: OVCAR-4 ovarian
[47] = test system: SK-OV-3 ovarian
[48] = test system: NCI-H460 lung
[49] = test system: SF-268 CNS
[50] = test system: SN12C renal
[51] = test system: EKVX NSCLC
[52] = test system: MDA-MB-231 breast
[53] = test system: HOP-62 NSCLC
[54] = test system: SR leukemia
[55] = test system: HCT-15 colon
[56] = test system: MDA-MB-435
[57] = test system: IGROV1 ovarian
[58] = test system: UACC-62 melanoma

CC[C@H](Nc1cc(C)nc(N)n1)c1nc2cccc(NCc3ccc(C(=O)NO)cc3)c2c(=O)n1-c1ccccc1
GI50 [1]: 2.01 µM | TGI [1]: 4.72 µM | GI50 [2]: 1.69 µM | TGI [2]: 3.31 µM | GI50 [3]: 1.85 µM | TGI [3]: 3.79 µM | GI50 [4]: 1.83 µM | TGI [4]: 4.77 µM | GI50 [5]: 3.79 µM | TGI [5]: 16.4 µM | GI50 [6]: 1.98 µM | TGI [6]: 6.39 µM | GI50 [7]: 10.2 µM | TGI [7]: 24.2 µM | GI50 [8]: 1.56 µM | TGI [8]: 3.79 µM | GI50 [9]: 1.06 µM | TGI [9]: 3.19 µM | GI50 [10]: 1.39 µM | TGI [10]: 2.93 µM | GI50 [11]: 1.12 µM | TGI [11]: 3.5 µM | GI50 [12]: 2.86 µM | TGI [12]: 14.9 µM | GI50 [13]: 1.67 µM | TGI [13]: 3.26 µM | GI50 [14]: 1.85 µM | TGI [14]: 3.88 µM | GI50 [15]: 1.48 µM | TGI [15]: 2.9 µM | GI50 [16]: 1.83 µM | TGI [16]: 4.41 µM | GI50 [17]: 1.33 µM | TGI [17]: 3.54 µM | GI50 [18]: 3.33 µM | TGI [18]: 14.2 µM | GI50 [19]: 1.54 µM | TGI [19]: 6.13 µM | GI50 [20]: 1.78 µM | TGI [20]: 3.29 µM | GI50 [21]: 2.44 µM | TGI [21]: 6.57 µM | GI50 [22]: 2.99 µM | TGI [22]: 10.6 µM | GI50 [23]: 10.5 µM | TGI [23]: 22.7 µM | GI50 [24]: 2.36 µM | TGI [24]: 9.97 µM | GI50 [25]: 1.47 µM | TGI [25]: 3.03 µM | GI50 [26]: 1.51 µM | TGI [26]: 3.33 µM | GI50 [27]: 2.58 µM | TGI [27]: 7.37 µM | GI50 [28]: 1.66 µM | TGI [28]: 3.48 µM | GI50 [29]: 2.17 µM | TGI [29]: 7.41 µM | GI50 [30]: 2.59 µM | TGI [30]: 6.1 µM | GI50 [31]: 2.08 µM | TGI [31]: 7.4 µM | GI50 [32]: 1.96 µM | TGI [32]: 4.41 µM | GI50 [33]: 2.69 µM | TGI [33]: 10.4 µM | GI50 [34]: 77.2 µM | TGI [34]: > 100 µM | GI50 [35]: 1.82 µM | TGI [35]: 3.34 µM | GI50 [36]: 1.83 µM | TGI [36]: 3.9 µM | GI50 [37]: 1.86 µM | TGI [37]: 4.39 µM | GI50 [38]: 1.55 µM | TGI [38]: 3.72 µM | GI50 [39]: 1.62 µM | TGI [39]: 11.4 µM | GI50 [40]: 2.52 µM | TGI [40]: 10.2 µM | GI50 [41]: 2.56 µM | TGI [41]: 10 µM | GI50 [42]: 2.4 µM | TGI [42]: 7.59 µM | GI50 [43]: 1.61 µM | TGI [43]: 4.19 µM | GI50 [44]: 2.04 µM | TGI [44]: 6.13 µM | GI50 [45]: 4.28 µM | TGI [45]: 16.9 µM | GI50 [46]: 1.61 µM | TGI [46]: 4.12 µM | GI50 [47]: 2.52 µM | TGI [47]: 8.88 µM | GI50 [48]: 1.94 µM | TGI [48]: 5.68 µM | GI50 [49]: 1.82 µM | TGI [49]: 3.49 µM | GI50 [50]: 1.96 µM | TGI [50]: 4.72 µM | GI50 [51]: 3.32 µM | TGI [51]: 12.2 µM | GI50 [52]: 1.62 µM | TGI [52]: 3.16 µM | GI50 [53]: 2.05 µM | TGI [53]: 4.47 µM | GI50 [54]: 0.679 µM | TGI [54]: 13 µM | GI50 [55]: 10.4 µM | TGI [55]: 25.1 µM | GI50 [56]: 1.64 µM | TGI [56]: 3.12 µM

Cn1cc(C2=C(c3cn(C)c4ccc(OCc5ccccc5)cc34)C(=O)NC2=O)c2ccccc21
GI50 [1]: > 25 µM | TGI [1]: > 25 µM | GI50 [2]: > 25 µM | TGI [2]: > 25 µM | GI50 [3]: > 25 µM | TGI [3]: > 25 µM | GI50 [4]: > 25 µM | TGI [4]: > 25 µM | GI50 [5]: > 25 µM | TGI [5]: > 25 µM | GI50 [6]: > 25 µM | TGI [6]: > 25 µM | GI50 [7]: > 25 µM | TGI [7]: > 25 µM | GI50 [8]: > 25 µM | TGI [8]: > 25 µM | GI50 [9]: > 25 µM | TGI [9]: > 25 µM | GI50 [10]: > 25 µM | TGI [10]: > 25 µM | GI50 [11]: > 25 µM | TGI [11]: > 25 µM | GI50 [12]: > 25 µM | TGI [12]: > 25 µM | GI50 [13]: > 25 µM | TGI [13]: > 25 µM | GI50 [14]: > 25 µM | TGI [14]: > 25 µM | GI50 [15]: > 25 µM | TGI [15]: > 25 µM | GI50 [16]: > 25 µM | TGI [16]: > 25 µM | GI50 [17]: > 25 µM | TGI [17]: > 25 µM | GI50 [18]: > 25 µM | TGI [18]: > 25 µM | GI50 [19]: > 25 µM | TGI [19]: > 25 µM | GI50 [20]: > 25 µM | TGI [20]: > 25 µM | GI50 [21]: > 25 µM | TGI [21]: > 25 µM | GI50 [22]: > 25 µM | TGI [22]: > 25 µM | GI50 [23]: > 25 µM | TGI [23]: > 25 µM | GI50 [24]: > 21.2 µM | TGI [24]: > 25 µM | GI50 [25]: > 25 µM | TGI [25]: > 25 µM | GI50 [26]: > 25 µM | TGI [26]: > 25 µM | GI50 [27]: > 25 µM | TGI [27]: > 25 µM | GI50 [28]: > 25 µM | TGI [28]: > 25 µM | GI50 [29]: > 25 µM | TGI [29]: > 25 µM | GI50 [30]: > 25 µM | TGI [30]: > 25 µM | GI50 [31]: > 25 µM | TGI [31]: > 25 µM | GI50 [32]: > 25 µM | TGI [32]: > 25 µM | GI50 [33]: > 25 µM | TGI [33]: > 25 µM | GI50 [34]: > 25 µM | TGI [34]: > 25 µM | GI50 [35]: > 25 µM | TGI [35]: > 25 µM | GI50 [36]: > 25 µM | TGI [36]: > 25 µM | GI50 [37]: > 25 µM | TGI [37]: > 25 µM | GI50 [38]: > 25 µM | TGI [38]: > 25 µM | GI50 [39]: > 25 µM | TGI [39]: > 25 µM | GI50 [40]: > 25 µM | TGI [40]: > 25 µM | GI50 [41]: > 25 µM | TGI [41]: > 25 µM | GI50 [57]: > 25 µM | TGI [57]: > 25 µM | GI50 [42]: > 25 µM | TGI [42]: > 25 µM | GI50 [43]: > 25 µM | TGI [43]: > 25 µM | GI50 [58]: > 25 µM | TGI [58]: > 25 µM | GI50 [44]: > 25 µM | TGI [44]: > 25 µM | GI50 [45]: > 25 µM | TGI [45]: > 25 µM | GI50 [46]: > 16.9 µM | TGI [46]: > 25 µM | GI50 [47]: > 25 µM | TGI [47]: > 25 µM | GI50 [48]: > 25 µM | TGI [48]: > 25 µM | GI50 [49]: > 25 µM | TGI [49]: > 25 µM | GI50 [50]: > 25 µM | TGI [50]: > 25 µM | GI50 [52]: > 25 µM | TGI [52]: > 25 µM | GI50 [53]: > 25 µM | TGI [53]: > 25 µM | GI50 [54]: > 25 µM | TGI [54]: > 25 µM | GI50 [55]: > 25 µM | TGI [55]: > 25 µM | GI50 [56]: > 25 µM | TGI [56]: > 25 µM
